Patent US8703799B2, “Non-competitive NMDA receptor antagonists” (priority 2006, dated 2014)
Values joined by “and” are separate entries in the source; they are usually repeats but may differ in a detail not shown here. Equal values may be shown once.

Key:
MES-induced seizures = assay: Maximal electroshock (MES) test for anti-convulsive activity in mice; assay type: in vivo; set-up: key: (+) means MES test protection occurred at 100 mg/kg delivered i.p. in mice; (−) means that no activity was observed; conditions: i.p., 100 mg/kg
Protocol: The maximal electroshock (MES) test was used to initially screen compounds for anti-convulsive activity in mice.
In the MES test, 50 mA of […] alternating current was delivered to 19-25 g mice for 2 s by a corneal electrode which had been primed with an electrolyte solution containing an anesthetic agent (0.5% tetracaine HCl). Mice were tested at various intervals following doses of 30, 100 or 300 mg/kg of test compound given by i.p. injection in 0.01 ml/g of the aqueous carrier. Animals are considered protected from MES-induced seizures upon abolition of hindlimb tonic extensor component of the seizure (Swinyard et al. 1989; White et al. 1995a; White et al. 1995b).
(§1) For activity, (+) means MES test protection occurred at 100 mg/kg delivered i.p. in mice and (−) means that no activity was observed. For toxicity, (+++) means some animals died at 100 mg/kg and all animals died at 300 mg/kg; (++) means that some toxicity observed at 100 mg/kg and all animals died at 300 mg/kg; and (−) means no toxicity observed at 100 mg/kg and some observed at 300 mg/kg but no animals died at 300 mg/kg.

mice = assay: Acute toxicity (rotorod minimal motor impairment, overt signs, death) in mice; assay type: in vivo; set-up: key: (+++) means some animals died at 100 mg/kg and all animals died at 300 mg/kg; (++) means that some toxicity observed at 100 mg/kg and all animals died at 300 mg/kg; (−) means no toxicity observed at 100 mg/kg and some observed at 300 mg/kg but no animals died at 300 mg/kg; conditions: i.p., 100 and 300 mg/kg
Protocol: Acute toxicity was assessed by monitoring animals for overt signs of impaired neurological or muscular function. The rotorod test measures minimal motor impairment (MMI) by placing mice on a rod rotated a 6 rpm. A compound is considered toxic if the mice fall off the rod three times during a 1-min period. Additionally, mice were observed and noted for circular or zigzag gaits, abnormal body posture and spread of the legs, tremors, hyperactivity, lack of exploratory behavior, somnolence, stupor, catalepsy, loss of placing response and change in muscle tone.
as §1

[1] = system: electrically-induced convulsions; assay: Anti-convulsive ED50 in rats, oral (electrically-induced convulsions); assay type: in vivo; conditions: delivered orally, amelioration of electrically-induced convulsions
Protocol: Suitable dosages for the compounds and methods disclosed herein range from about 0.05, 0.1, 0.2 or 0.5 mg/kg body weight to about 100 or 200 mg/kg body weight. In certain embodiments, dosages range from about 0.5 to 1 mg/kg body weight to about 100 mg/kg body weight. In other embodiments doses range from about 10 to about 50 mg/kg body weight. Performance of studies to determine an optimal dosage for a particular condition using a particular compound is well within the level of ordinary skill in this field. […] For example, the ED50 of bicyclo,4-F-PCP for alleviation, treatment, or prevention of Alzheimer's and Parkinson's disease would be expected to be on the order of 3 mg/kg.
Compound 4 (Bicyclo,4-F-PCP) was tested in rats using 30 mg/kg delivered orally.

log P determination = assay type: physicochemical; conditions: measure of lipophilicity
pKa determination = assay type: physicochemical
[2] = Aqueous solubility of fumarate salt; assay type: physicochemical; conditions: read-out: solubility in aqueous solution
[3] = system: NMDA receptors (MK-801 binding site); assay: MK-801 (dizocilpine) binding site assay; conditions: rat forebrain membrane, 20 mM HEPES pH 7.5, 25° C., 90 min; FIG. 3
Protocol: NMDA receptors were isolated from rat forebrain membrane (Bmax=830 fmol/mg protein) and incubated with ^3H-labeled MK-801 maleate (15-30 Ci/mmol) in 20 mM HEPES (pH 7.5) buffer at 25° C. for 90 min to yield labeled receptors. MK-801 is a known non-competitive antagonist of NMDA receptor.
Selected concentrations of non-labeled bicyclo,4-F-PCP were incubated with the labeled receptors in 20 mM HEPES (pH 7.5) buffer at 25° C. for 90 min. At the conclusion of the assay, the reaction mixture was filtered immediately on glass filters by vacuum filtration and washed twice with buffer solutions. The radioactivity trapped on the filters was measured, compared with controls, and the ki and IC50 values of bicyclo,4-F-PCP were calculated.

[4] = system: NMDA receptors (competitive site, CGP 39653); assay: NMDA agonist binding site assay ([3H]CGP 39653); conditions: rat forebrain membrane, 50 mM TRIS-acetate pH 7.4, 0-4° C., 60 min; FIG. 4
Protocol: NMDA receptors were isolated from rat forebrain membrane (Bmax=0.77 pmol/mg tissue) and incubated with ^3H-labeled CGP 39653 (15-30 Ci/mmol) in 50 mM TRIS-acetate (pH 7.4) buffer at 0-4° C. for 60 min to yield labeled receptors. CGP 39653 is a known competitive antagonist of NMDA receptor.
Selected concentrations of non-labeled bicyclo,4-F-PCP were incubated with the labeled receptors in 50 mM TRIS-Acetate (pH 7.4) buffer at 0-4° C. for 60 min. At the conclusion of the assay, the reaction mixture was immediately filtered using glass filters and vacuum filtration, washing twice with buffer solutions. The radioactivity trapped on the filters was measured, compared with controls, and the ki and IC50 values of bicyclo,4-F-PCP calculated.

In the case of `NC1(c2ccc(F)cc2)CC2CCC1C2` (racemic) [Compound 2, (±)-2-(4-fluorophenyl)-bicyclo[2.2.1]hept-2-ylamine], the “Activity (MES test protection)” value (MES-induced seizures) is reported as “+” and the Toxicity (mice) is reported as “++”.

For `Fc1ccc(C2(N3CCCCC3)CC3CCC2C3)cc1` (racemic) [Compound 4, (±) 1-[2-(4-fluorophenyl)-bicyclo[2.2.1]hept-2-yl]-piperidine], the “Activity (MES test protection)” value (MES-induced seizures) was “+”, the Toxicity (mice) was “−” and the ED50 ([1]; Rattus norvegicus, po, read-out: ED50 (effective dose)) was 28.3 mg/kg. The “ED50 (effective dose)” value ([1]; listed as bicyclo,4-F-PCP) was 28 mg/kg, the logP (log P determination) was 2.07 and the pKa (pKa determination) was 8.87. The solubility [2] was 36600 µM and 14200 µg/mL, the “displacement of [3H] MK-801 maleate bound to NMDA receptors” value [3] was “can displace” and the “displacement of CGP 39653 from NMDA receptors” value [4] was “does not displace”.

With `NC1(c2ccccc2F)CCCCCC1` [cycloheptyl 2-F amine] the “Activity (MES test protection)” value (MES-induced seizures) was “+” and the Toxicity (mice) was “++”.

For `Fc1ccc(C2(N3CCCCC3)CCCCCC2)cc1` [cycloheptyl 4-F piperidine], the “Activity (MES test protection)” value (MES-induced seizures) was “+” and the Toxicity (mice) was “+++”.
